# Reference: PMC4822798 (Clinical Pharmacology : Advances and Applications, 2016)
# Read-outs that look alike come from different tables or passages of the source.
# Assays:
# MRSA strains = experiment: Teicoplanin susceptibility testing; assay type: cell-based, methicillin-resistant Staphylococcus aureus; conditions: Mueller-Hinton agar, E-test, 16–20 hours at 37°C
# MRSA infections [1] = experiment: PK/PD analysis: AUC24/MIC ratio versus bacteriological response in patients; assay type: in vivo, patients (human); conditions: for probability of treatment success: logistic regression, 46 patients
# [2] = mean population PK parameter, Japanese patients; cited from earlier work
# MRSA infections [3] = conditions: cited from earlier work; for AUC24 value on the third day: ref 12 (Hagihara et al)
# MRSA isolates = conditions: all isolates, cited from earlier work
# [4] = cited from earlier work
compound,measurement,setting,value
teicoplanin,MIC,MRSA strains; 2.2% of the 46 MRSA strains,0.38 µg/mL
same,MIC,MRSA strains; 6.5% of the 46 MRSA strains,0.5 µg/mL
same,MIC,MRSA strains; 13.0% of the 46 MRSA strains,1.5 µg/mL
same,MIC,MRSA strains; 34.8% of the 46 MRSA strains,1.0 µg/mL
same,MIC,MRSA strains; 43.5% of the 46 MRSA strains,0.75 µg/mL
same,probability of treatment success,MRSA infections [1]; AUC24/MIC ratio of 500 µg·h/mL on day 3,0.50
same,probability of treatment success,MRSA infections [1]; AUC24/MIC ratio of 700 µg·h/mL on day 3,0.72
same,probability of treatment success,MRSA infections [1]; AUC24/MIC ratio of 900 µg·h/mL on day 3,0.87
same,"bacteriological response, AUC24/MIC ratios of ≥900 (n=15) versus <900 (n=31)","MRSA infections [1]; Kaplan–Meier curve analysis, P<0.05",significantly stronger bacteriological responses
same,AUC24/MIC ratio required to ensure bacteriological responses,MRSA infections [1]; patients with MRSA infections,≥ 900 µg·h/mL
same,distribution volume of the central compartment,[2],10.4 L
same,transfer rate constant from the central compartment to the peripheral compartment,[2],0.38 h⁻¹
same,transfer rate constant from the peripheral compartment to the central compartment,[2],0.0485 h⁻¹
same,trough concentrations effective for treating most infections,MRSA infections [3],> 13 µg/mL
same,"log[Cmax, unbound/MIC] threshold for achieving treatment success","MRSA infections [3]; day 3 of teicoplanin therapy, ref 14 (Ogawa et al)",0.30
same,AUC24 value on the third day,MRSA infections [3]; treatment failure group,652.9 ± 83.4 µg·h/mL
same,AUC24 value on the third day,MRSA infections [3]; treatment success group,897.6 ± 71.7 µg·h/mL
same,MIC,MRSA isolates; ref 12,≤ 1.0 µg/mL
same,MIC,MRSA isolates; ref 13,< 2.0 µg/mL
CN[C@H](CC(C)C)C(=O)N[C@H]1C(=O)N[C@@H](CC(N)=O)C(=O)N[C@H]2C(=O)N[C@H]3C(=O)N[C@H](C(=O)N[C@H](C(=O)O)c4cc(O)cc(O)c4-c4cc3ccc4O)[C@H](O)c3ccc(c(Cl)c3)Oc3cc2cc(c3O[C@@H]2O[C@H](CO)[C@@H](O)[C@H](O)[C@H]2O[C@H]2C[C@](C)(N)[C@H](O)[C@H](C)O2)Oc2ccc(cc2Cl)[C@H]1O [vancomycin],trough concentrations needed to achieve an AUC value of ≥400,[4],10 to 20 µg/mL
same,AUC/MIC ratio associated with clinical and bacteriological responses,[4]; guidelines for therapeutic drug monitoring,≥ 400
